In US6486196B2, “Anticancer compounds: process for their preparation and pharmaceutical compositions containing them” (Dr. Reddy's Research Foundation, priority 2000, dated 2002):
Read-outs that look alike come from different tables or passages of the source.

Tests used:
HIV-1/MN = experiment: Anti HIV activity in PM-1 cells (P24 ELISA, MTT corrected); format: cell-based; settings: 1 μM; PM-1 cells infected with HIV-1/MN, 96 h, P24 antigen corrected by MTT
Method: Human CD^4+ T cell line PM-1 used in the assay was cultured in RPMI-1640 medium containing 10% Fetal bovine serum, 2 g/L sodium bicarbonate, 100,000 units/L Pencillin-G and 100 mg/L streptomycin. Healthy PM-1 cells were plated on the first day in a 96 well plate at 2×10^6 cells per well. After 24 h HIV-1/MN was added to the culture and incubated for 2 h for infection. Cells were washed twice with PBS to remove the virus in the culture. Different concentrations of DRF compounds ranging from 10−^4 to 10^−8 M were added to the culture and incubated for 96 h. The viability of cells was then assessed by standard MTT assay and the viral antigen P24 levels were estimated by ELISA method. Based on the MTT assay values the P 24 antigen values were corrected.
All the samples were tested in triplicates and the average was used for calculations. AZT was used as standard compound for comparision.

HIV-1 (EIB) = settings: cited from earlier work
SKOV-3 = experiment: Sulforhodamine B growth inhibition, ovarian SKOV-3; format: cell-based, human; settings: SRB, read-out: GROWTH INHIBITION (GI 50)
Method: (§1) Each test compound was screened against a battery of cell lines representing eight different types of cancers. In a typical procedure, 1×10^4 cells were seeded into each well of 96 well plate in 100 μL volume of RPMI 1640 medium containing antibiotics and 10% FCS.
(§2) The plates were incubated at 37° C. in presence of CO2. After 24 h, test compounds were evaluated at five 10 fold dilutions ranging from 100 to 0.01 μM. To each test well 100 μL of test compound solution was added and medium with vehicle was added to control wells and the plates were further incubated. After 48 h of incubation, plates were terminated by Sulforhodamine B method.
(§3) The optical density which is proportional to protein mass, is then read by automated spectrophotometric plate reader at a wavelength of 515 nm.

MCF-7/ADR = experiment: Sulforhodamine B growth inhibition, breast MCF-7/ADR; format: cell-based, human; settings: 48 h, SRB, read-out: GROWTH INHIBITION (GI 50)
Method: as §1, §2, §3

U251 = experiment: Sulforhodamine B growth inhibition, CNS U251; format: cell-based, human; settings: SRB, read-out: GROWTH INHIBITION (GI 50)
Method: as §1, §2, §3

HT29 = experiment: Sulforhodamine B growth inhibition, colon HT29; format: cell-based, human; settings: Homo sapiens, HT-29, 48 h, SRB, read-out: GROWTH INHIBITION (GI 50)
Method: as §1, §2, §3

H522 = experiment: Sulforhodamine B growth inhibition, lung H522; format: cell-based, human; settings: SRB, read-out: GROWTH INHIBITION (GI 50)
Method: as §1, §2, §3

UACC62 = experiment: Sulforhodamine B growth inhibition, melanoma UACC62; format: cell-based, human; settings: Homo sapiens, UACC-62, 48 h, SRB, read-out: GROWTH INHIBITION (GI 50)
Method: as §1, §2, §3

SW-620 = experiment: Sulforhodamine B growth inhibition, colon SW-620; format: cell-based, human; settings: 48 h, SRB, read-out: GROWTH INHIBITION (GI 50)
Method: as §1, §2, §3

MCF7 = experiment: Sulforhodamine B growth inhibition, breast MCF7; format: cell-based, human; settings: Homo sapiens, 48 h, SRB, read-out: GROWTH INHIBITION (GI 50)
Method: as §1, §2, §3

A498 = experiment: Sulforhodamine B growth inhibition, renal A498; format: cell-based, human; settings: 48 h, SRB, read-out: GROWTH INHIBITION (GI 50)
Method: as §1, §2, §3

PA1 = experiment: Sulforhodamine B growth inhibition, ovarian PA1; format: cell-based, human; settings: Homo sapiens, PA-1, 48 h, SRB, read-out: GROWTH INHIBITION (GI 50)
Method: as §1, §2, §3

DU145 = experiment: Sulforhodamine B growth inhibition, prostate DU145; format: cell-based, human; settings: SRB, read-out: GROWTH INHIBITION (GI 50)
Method: as §1, §2, §3

M14 = experiment: Sulforhodamine B growth inhibition, melanoma M14; format: cell-based, human; settings: 48 h, SRB, read-out: GROWTH INHIBITION (GI 50)
Method: as §1, §2, §3

ACHN = experiment: Sulforhodamine B growth inhibition, renal ACHN; format: cell-based; settings: Homo sapiens, 48 h, SRB, read-out: GROWTH INHIBITION (GI 50)
Method: as §1, §2, §3

PC-3 = experiment: Sulforhodamine B growth inhibition, prostate PC-3; format: cell-based, human; settings: Homo sapiens, 48 h, SRB, read-out: GROWTH INHIBITION (GI 50)
Method: as §1, §2, §3

[1] = system: P388 lymphocytic leukemia; settings: P388 cells; cited from earlier work
KB = KB cells; cited from earlier work

## Cc1cn([C@H]2C[C@H](N=[N+]=[N-])[C@@H](CO)O2)c(=O)[nH]c1=O [AZT, reference compound]
HIV-1/MN
  Percentage Inhibition: 72.47%

## C=C1CCC2[C@](C)(COC(=O)CC)[C@H](OC(=O)CC)CC[C@]2(C)[C@H]1C/C=C1/C(=O)OC[C@H]1OC(=O)CNC(=O)OC(C)(C)C (stereo partly drawn) [Example 20, 14-(N-Boc-glycinyl)-3,19-dipropionyl andrographolide]
other
  melting point: 65 °C

## C=C1CCC2[C@](C)(COC(=O)CC)C(OC(=O)CC)CC[C@]2(C)[C@H]1C/C=C1/C(=O)OCC1OC(=O)/C=C/c1ccc(OC)c(OC)c1 (stereo partly drawn) [Example 27, 14-(3,4-dimethoxy)cinnamoyl-3,19-dipropionyl andrographolide]
other
  melting point: 85.4 °C

## dehydroandrographolide succinic acid monoester [DASM]
HIV-1 (EIB)
  minimal concentration inhibitory to HIV-1 (EIB): 1.6 to 3.1 µg/mL

## C=C1CCC2[C@]3(C)COC(C)(c4ccccc4)O[C@@H]3CC[C@]2(C)[C@H]1C/C=C1/C(=O)OC[C@H]1O (stereo partly drawn) [Example 3, 3,19-(1-Phenylethylidene)andrographolide]
SKOV-3; Homo sapiens, SK-OV-3, 48 h
  GI50: 5 µM
MCF-7/ADR; Homo sapiens, NCI/ADR-RES
  GI50: 2 µM
U251; Homo sapiens, U-251, 48 h
  GI50: 2 µM
HT29
  GI50: 2 µM
other
  melting point: 201 to 203 °C
H522; Homo sapiens, NCI-H522, 48 h
  GI50: 12 µM
UACC62
  GI50: 3000 nM
SW-620; Homo sapiens
  GI50: 5 µM
MCF7
  GI50: 12 µM
A498; Homo sapiens
  GI50: 3 µM
PA1
  GI50: 19 µM

## C=C1CC[C@@H]2[C@]3(C)COC(C)(C)O[C@@H]3CC[C@@]2(C)[C@@H]1C/C=C1/C(=O)OC[C@H]1O [Example 1, 3,19-isopropylidene andrographolide]
SKOV-3; Homo sapiens, SK-OV-3, 48 h
  GI50: 8 µM
MCF-7/ADR; Homo sapiens, NCI/ADR-RES
  GI50: 2 µM
U251; Homo sapiens, U-251, 48 h
  GI50: 4 µM
HT29
  GI50: 2 µM
other
  melting point: 194.5 °C
H522; Homo sapiens, NCI-H522, 48 h
  GI50: 14 µM
UACC62
  GI50: 4000 nM
SW-620; Homo sapiens
  GI50: 5 µM
MCF7
  GI50: 13 µM
A498; Homo sapiens
  GI50: 13 µM
PA1
  GI50: 2 µM

## C=C1CC[C@@H]2[C@](C)(COC(C)=O)[C@H](OC(C)=O)CC[C@@]2(C)[C@@H]1C/C=C1/C(=O)OC[C@H]1OC(=O)CNC(C)=O [Example 22, 14-(N-acetyl-glycinyl)-3,19-diacetyl andrographolide]
SKOV-3; 48 h
  GI50: 30 µM
MCF-7/ADR
  GI50: 8 µM
DU145; 48 h
  GI50: 8 µM
U251; 48 h
  GI50: 1.5 µM
M14
  GI50: 9.5 µM
H522; 48 h
  GI50: 20 µM
SW-620
  GI50: 5 µM
A498
  GI50: 25 µM

## C=C1CCC2[C@](C)(CO)[C@H](O)CC[C@]2(C)[C@H]1C/C=C1/C(=O)OC[C@H]1OCc1ccccc1 (stereo partly drawn) [Example 15, 14-Benzyl andrographolide]
SKOV-3; Homo sapiens, SK-OV-3, 48 h
  GI50: 3 µM
MCF-7/ADR; Homo sapiens, NCI/ADR-RES
  GI50: 20 µM
DU145; Homo sapiens, DU-145, 48 h
  GI50: 4 µM
U251; Homo sapiens, U-251, 48 h
  GI50: 40 µM
HT29
  GI50: 3.5 µM
ACHN
  GI50: 4 µM
PC-3
  GI50: 2000 nM
other
  melting point: 141 °C
H522; Homo sapiens, NCI-H522, 48 h
  GI50: 12 µM
UACC62
  GI50: 3500 nM
SW-620; Homo sapiens
  GI50: 3.5 µM
MCF7
  GI50: 6 µM

## C=C1CCC2[C@](C)(CO)[C@H](O)CC[C@]2(C)[C@H]1C/C=C1/C(=O)OC[C@H]1OC(=O)C(C)C (stereo partly drawn) [Example 12, 14-Isopropanoyl andrographolide]
other
  melting point: 122.6 °C

## C=C1CC[C@@H]2[C@](C)(CO)[C@H](O)CC[C@@]2(C)[C@@H]1C/C=C1/C(=O)OC[C@H]1O [Andrographolide]
[1]
  cytotoxic activity: potent cytotoxic activity
KB
  cytotoxic activity: potent cytotoxic activity

## C=C1CCC2[C@]3(C)COC(C)(C)O[C@@H]3CC[C@]2(C)[C@H]1C/C=C1/C(=O)OC[C@H]1OC(=O)[C@H](CCSC)NC(=O)OC(C)(C)C (stereo partly drawn) [Example 4, 3,19-isopropylidene-14-(N-Boc-methionyl)andrographolide]
other
  melting point: 70 °C

## C=C1CCC2[C@](C)(CO)[C@H](O)CC[C@]2(C)[C@H]1C/C=C1/C(=O)OC[C@H]1OC(=O)c1ccccc1 (stereo partly drawn) [Example 14, 14-Benzoyl andrographolide]
SKOV-3; Homo sapiens, SK-OV-3, 48 h
  GI50: 3.5 µM
MCF-7/ADR; Homo sapiens, NCI/ADR-RES
  GI50: 3.5 µM
DU145; Homo sapiens, DU-145, 48 h
  GI50: 6 µM
U251; Homo sapiens, U-251, 48 h
  GI50: 1.5 µM
HT29
  GI50: 4 µM
ACHN
  GI50: 5 µM
PC-3
  GI50: 2000 nM
other
  melting point: 85.5 to 87 °C
H522; Homo sapiens, NCI-H522, 48 h
  GI50: 7.5 µM
UACC62
  GI50: 3000 nM
SW-620; Homo sapiens
  GI50: 3 µM
MCF7
  GI50: 10 µM

## C=C1CCC2[C@](C)(CO)[C@H](O)CC[C@]2(C)[C@H]1C/C=C1/C(=O)OC[C@H]1OC(C)=O (stereo partly drawn) [Example 7, 14-acetyl andrographolide]
other
  melting point: 169 °C

## C=C1CCC2[C@](C)(CO)[C@H](O)CC[C@]2(C)[C@H]1C/C=C1/C(=O)OC[C@H]1OC(=O)Nc1ccccc1 (stereo partly drawn) [Example 9, 14-phenylcarbamoyl andrographolide]
SKOV-3; Homo sapiens, SK-OV-3, 48 h
  GI50: 3 µM
MCF-7/ADR; Homo sapiens, NCI/ADR-RES
  GI50: 0.4 µM
DU145; Homo sapiens, DU-145, 48 h
  GI50: 6 µM
U251; Homo sapiens, U-251, 48 h
  GI50: 6.5 µM
HT29
  GI50: 4 µM
ACHN
  GI50: 5 µM
PC-3
  GI50: 3000 nM
other
  melting point: 120 °C
H522; Homo sapiens, NCI-H522, 48 h
  GI50: 12 µM
UACC62
  GI50: 3000 nM
SW-620; Homo sapiens
  GI50: 2.5 µM
MCF7
  GI50: 2.5 µM

## C=C1CC[C@@H]2[C@](C)(COC(C)=O)[C@H](OC(C)=O)CC[C@@]2(C)[C@@H]1C/C=C1/C(=O)OC[C@H]1OC(=O)C(O)C(NC(=O)c1ccccc1)c1ccccc1 (stereo partly drawn) [Example 18, 3,19-Diacetyl-14-(2′hydroxy-3′-benzoylamino 3′-phenyl)propionyl andrographolide]
SKOV-3; 48 h
  GI50: 4 µM
MCF-7/ADR
  GI50: 8 µM
DU145; 48 h
  GI50: 3 µM
U251; 48 h
  GI50: 8 µM
M14
  GI50: 3 µM
H522; 48 h
  GI50: 20 µM
SW-620
  GI50: 5 µM
A498
  GI50: 10 µM

## C=C1CCC2[C@]3(C)COC(c4ccccc4)O[C@@H]3CC[C@]2(C)[C@H]1C/C=C1/C(=O)OC[C@H]1O (stereo partly drawn) [Example 2, 3,19-Benzylidene andrographolide]
other
  melting point: 142 to 143 °C

## C=C1CCC2[C@](C)(CO)[C@H](O)CC[C@]2(C)[C@H]1C/C=C1/C(=O)OC[C@H]1OC(=O)NC(C)C (stereo partly drawn) [Example 10, 14-(N-isopropyl)carbamoyl andrographolide]
other
  melting point: 122 °C

## C=C1CCC2[C@](C)(CO)[C@H](O)CC[C@]2(C)[C@H]1C/C=C1/C(=O)OC[C@H]1OC(=O)C(C)(C)C (stereo partly drawn) [Example 13, 14-Pivaloyl andrographolide]
other
  melting point: 172.7 °C

## C=C1CCC2[C@](C)(CO)[C@H](O)CC[C@]2(C)[C@H]1C/C=C1/C(=O)OC[C@H]1OC(=O)/C=C/c1ccccc1 (stereo partly drawn) [Example 11, 14-Cinnamoyl andrographolide]
other
  melting point: 77 °C
